Patent US9220794B2, “Two-photon fluorescent probes for imaging of total sulfide in live cell and tissue, and quantitative estimation of total sulfide concentration using the same” (Korea University Research and Business Foundation, priority 2013, dated 2015)

Legend:
[1] = test system: HeLa cells; assay: Photostability of TPEF intensity in labeled HeLa cells; format: cell-based, human; settings: continuous radiation of fs-pulses for 60 minutes
Excerpt: These findings confirm that the compound of [Chemical Formula 2-6] can measure the total sulfide concentration in living cells by the kinetic method with minimum interference from cytotoxicity and photostability.

[2] = One-photon absorption and emission spectra, fluorescence quantum yield; format: physicochemical; settings: for 10^−4 ε: value is ε×10^−4
Experimental: The solvatochromic effect observed for the compound of [Chemical Formula 2-6] may have resulted from the […] dipole moment.
Absorption spectra were recorded on the Hewlett-Packard 8453 diode array spectrophotometer and fluorescence spectra were obtained with the Amico-Bowman series 2 luminescence spectrometer with a 1-cm standard quartz cell.

[3] = Kinetic studies in solution: reaction of the probe with sulfide
Excerpt: The reaction between the compound of [Chemical Formula 2-6] […] For example, the compound of [Chemical Formula 2-6] was synthesized from the reaction of the compound of [Chemical Formula 2-5] and HS^−. Also, precipitation of sulfur or sulfide was reported in the reaction between phenyl azide and Na2S.
This followed pseudo first-order kinetics with kobs=2.89×10^−4 s^−1 (FIG. 1b).
The k2 value calculated from the slope of the plot was 5.13 M^−1s^−1 (measured in HEPES buffer).
Reactions of the compound of [Chemical Formula 2-6] (5 μM) with Na2S (100-500 μM) in HEPES buffer or HEPES/EtOH (1/1, pH 7.2) were followed by monitoring of the increase in the fluorescence of the compound of [Chemical Formula 2-5] at 525-650 nm using a luminescence spectrometer.
The kinetic studies in a TP mode were conducted by the same procedure described above except that the TPEF was collected upon excitation at 750 nm.
In all cases, the plots of −ln(F^∞2−F2) vs. t were linear with good correlations. The kobs values were obtained from the slopes of the plots and the K2 values were obtained from the slopes of the plots of kobs vs. [HS^−]. [HS^−] was calculated by assuming that all of the Na2S was converted to HS^− and H2S, that is, [Na2S]=[H2S]+[HS^−], and using the relationship [H2S]/[HS^−]=[H^+]/Ka=0.794 in HEPES/EtOH (1/1, pH=7.2).

[4] = test system: HeLa cells; assay: Cell viability, CCK-8 kit; format: cell-based, human; settings: incubation condition
[5] = Measurement of two-photon cross section (fs fluorescence technique, rhodamine 6G reference); format: physicochemical; settings: for Φδmax, two-photon action cross section: uncertainty ±15%
Experimental: Two-photon cross section (δ) was determined using a femtosecond (fs) fluorescence measurement technique.
The compound of [Chemical Formula 2-5] and the compound of [Chemical Formula 2-6] were dissolved in 20 mM HEPES buffer (pH 7.2) and 3.0×10^−6 M HEPES/EtOH (1/1) and then two-photon induced fluorescence intensity was measured at 740-940 nm using rhodamine 6G as a reference, whose two-photon property has been well characterized. The two-photon fluorescence intensities of the reference and the compound of [Chemical Formula 2-6] and the compound of [Chemical Formula 2-5] were determined.
The two-photon cross section was calculated from δ=δr(Ssφrφrcr)/(Srφsφscs). In the equation, the subscripts s and r stand for the sample, i.e., the compound of [Chemical Formula 2-6] and the compound of […], respectively. S denotes the intensity of the signal collected using a CCD detector, φ is the fluorescence quantum yield (measured using coumarin 307 and rhodamine B according to the literature), […] fluorescence collection efficiency, and c is the number density of molecules in solution. δr is the two-photon cross section of the reference molecule.

[6] = Selectivity for sulfide: ratiometric response (F2/F1) in the presence of various analytes
Experimental: The ratio of fluorescence intensities (F2/F1) measured at a short wavelength (F1) and a long wavelength (F2) at 0, 60 and 120 min is shown. All the data were obtained at 37° C. in HEPES buffer. Excitation wavelengths for one-photon and two-photon processes were 370 nm (short wavelength) and 750 nm (long wavelength), respectively.
To test whether the compound of [Chemical Formula 2-6] can selectively detect HS^− over other biologically relevant species, the ratiometric response of the compound of [Chemical Formula 2-6] was determined in the presence of various analytes.

[7] = test system: HeLa cells; assay: Kinetic estimation of total sulfide concentration in HeLa cells (TPEF); format: cell-based, human
Experimental: To quantitatively estimate the total sulfide concentration in living cells, the TPEF intensity of HeLa cells labeled with the compound of [Chemical Formula 2-6] was monitored in the absence and presence of Na2S, cysteine (Cys) and glutathione (GSH) with 20-30 minute intervals.
Since H2S and HS^− are in equilibrium and [H2S]/[HS^−]=[H^+]/Ka=0.794 in HEPES/EtOH (1/1, pH=7.2), it seems appropriate to present the total sulfide concentration ([H2S]+[HS^−]).
Kinetic experiments in HeLa cells were conducted in the same manner except that TPEF intensities from HeLa cells labeled with the compound of [Chemical Formula 2-6] upon excitation at 750 nm were monitored with 20-30 minute intervals.
The average TPEF intensities at given time and the SB2/SA1 ratio was obtained by dividing the TPEF intensity of [Chemical Formula 2-6] at 390-450 nm by that of [Chemical Formula 2-5] at 525-650 nm in the HeLa cells (FIG. 1b) were used in the kobs calculation.
The kobs value was measured at 10 regions of interest (ROIs) from three independent cell lines.
To evaluate the effect of Na2S, cysteine and GSH, HeLa cells were incubated with the compound of [Chemical Formula 2-6] (2 μM) and then treated with Na2S (100, 300 μM), cysteine (500 μM) and GSH (500 μM) for 30 minutes. The cells were then washed 3 times with FBS-free DMEM and subjected to kinetic measurement.

[8] = HEPES buffer (20 mM HEPES, 100 mM KCl, pH 7.4)

photostability (decay of TPEF intensity) [1]: high photostability
Δλmax, shift of absorption spectrum with solvent polarity ([2]; 1,4-dioxane to HEPES buffer): 8 nm
Δλ^FImax, shift of emission spectrum with solvent polarity ([2]; 1,4-dioxane<DMF<EtOH<HEPES/EtOH (1/1)<HEPES buffer): 31 nm
Φ, fluorescence quantum yield ([2]; EtOH): 0.87
λ^(1)max, one-photon absorption maximum ([2]; EtOH): 354 nm
λ^flmax, one-photon emission maximum ([2]; EtOH): 437 nm
10^−4 ε ([2]; EtOH): (4.27) M^−1cm^−1
Φ, fluorescence quantum yield ([2]; HEPES buffer): 0.013
λ^(1)max, one-photon absorption maximum [2, 8]: 360 nm
λ^flmax, one-photon emission maximum [2, 8]: 444 nm
ε at maximum absorption ([2]; HEPES buffer, pH 7.4): 25000 M⁻¹ cm⁻¹
Φ, fluorescence quantum yield ([2]; HEPES/EtOH (1/1)): 0.41
λ^(1)max, one-photon absorption maximum ([2]; HEPES/EtOH (1/1)): 352 nm
λ^flmax, one-photon emission maximum ([2]; HEPES/EtOH (1/1)): 440 nm
10^−4 ε ([2]; HEPES/EtOH (1/1)): (4.11) M^−1cm^−1
10^−4 ε ([2]; HEPES): (2.50) M^−1cm^−1
λ^(2)max, two-photon maximum ([5]; HEPES): 740 nm
Φδmax, two-photon action cross section ([5]; HEPES buffer, 2-6 at 740 nm, 2-5 at 750 nm): 0.67 GM
λ^(2)max, two-photon maximum ([5]; HEPES/EtOH (1/1)): 740 nm
increase of action cross section (φδ) in HEPES/EtOH (1/1) versus HEPES buffer ([5]; HEPES/EtOH (1/1) vs HEPES buffer): 12 fold
Φδmax, two-photon action cross section ([5]; HEPES/EtOH (1/1), GM = 10^−50 cm^4s/photon): 12 GM
SMILES: COCCOCCC1(CCOCCOC)c2cc(NC(=O)OCc3ccc(N=[N+]=[N-])cc3)ccc2-c2ccc(-c3nc4ccccc4s3)cc21 [Chemical Formula 2-6]
k2, second-order rate constant of reaction with HS^− ([3]; HEPES buffer, slope of kobs vs. [HS^−]): 5.13 M⁻¹ s⁻¹
k2, second-order rate constant of reaction with HS^− ([3]; HEPES/EtOH (1/1, pH=7.2), calculated using pKa (H2S)=7.10): 5.17 M⁻¹ s⁻¹
influence of p-dinitrobenzene (electron acceptor) on kobs ([3]; addition of p-dinitrobenzene): not influenced
kobs, pseudo first-order rate constant ([3]; probe 5 μM + 100 μM Na2S, HEPES buffer, 37° C.): 0.000289 s⁻¹
toxicity (CCK-8 kit) [4]: negligible toxicity
reactivity toward other biologically relevant species ([6]; 10 mM GSH, 1 mM Cys, 1 mM 2-ME, RSS, RNS, ROS, Ala, Glu, metal ions): no reactivity
increase of relative fluorescence intensity ratio (F2/F1) ([6]; 100 mM Na2S (55.7 mM HS^−), HEPES buffer): 110 fold
F2/F1 after deazidation ([6]; HEPES buffer): 110
reactivity toward commercially available GSH ([6]; commercially available GSH): small reactivity
reactivity toward purified GSH ([6]; purified GSH): no reactivity
kobs in labeled HeLa cells ([7]; HeLa cells labeled with 2-6, no additive): 0.0 ± 0.1 s⁻¹
total sulfide concentration ([H2S]+[HS^−]) in HeLa cells ([7]; no additive, probe 2-6): 0.0 ± 0.1 µM
